# Source: publication PMC6804443 (Acta Pharmaceutica Sinica. B, 2019)
# Entries after “also recorded” stand apart in the source; their conditions may differ.
# Legend:
# CYP3A4 = settings: higher concentrations; range over the named compounds and enzymes
# [1] = XueBiJing compounds; cited from earlier work
# UGT1A6 = target: T1, UGT1A6 (Homo sapiens, UniProt P19224); experiment: UGT1A6 inhibition by XueBiJing compounds, cDNA-expressed enzyme [4-MU→4-MUG]; format: in vitro ADME
# T1 sequence (P19224 27-532): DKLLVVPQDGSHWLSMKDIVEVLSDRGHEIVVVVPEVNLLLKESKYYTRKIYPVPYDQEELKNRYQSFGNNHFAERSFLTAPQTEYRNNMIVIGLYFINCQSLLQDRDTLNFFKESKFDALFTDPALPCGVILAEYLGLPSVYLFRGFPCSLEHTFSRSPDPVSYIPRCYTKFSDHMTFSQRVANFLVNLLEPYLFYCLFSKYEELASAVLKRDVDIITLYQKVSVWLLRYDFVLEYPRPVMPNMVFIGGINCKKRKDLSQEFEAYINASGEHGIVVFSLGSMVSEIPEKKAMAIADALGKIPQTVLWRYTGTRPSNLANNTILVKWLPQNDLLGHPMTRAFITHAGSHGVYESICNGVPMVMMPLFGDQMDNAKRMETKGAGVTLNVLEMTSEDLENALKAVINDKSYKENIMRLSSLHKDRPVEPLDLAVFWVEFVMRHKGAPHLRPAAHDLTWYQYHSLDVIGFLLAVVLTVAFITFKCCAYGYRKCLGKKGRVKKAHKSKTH
# OATP1B3 [2] = target: T2, OATP1B3 (Homo sapiens, UniProt Q9NPD5); experiment: in vitro; format: in vitro ADME
# T2 sequence (Q9NPD5 1-702): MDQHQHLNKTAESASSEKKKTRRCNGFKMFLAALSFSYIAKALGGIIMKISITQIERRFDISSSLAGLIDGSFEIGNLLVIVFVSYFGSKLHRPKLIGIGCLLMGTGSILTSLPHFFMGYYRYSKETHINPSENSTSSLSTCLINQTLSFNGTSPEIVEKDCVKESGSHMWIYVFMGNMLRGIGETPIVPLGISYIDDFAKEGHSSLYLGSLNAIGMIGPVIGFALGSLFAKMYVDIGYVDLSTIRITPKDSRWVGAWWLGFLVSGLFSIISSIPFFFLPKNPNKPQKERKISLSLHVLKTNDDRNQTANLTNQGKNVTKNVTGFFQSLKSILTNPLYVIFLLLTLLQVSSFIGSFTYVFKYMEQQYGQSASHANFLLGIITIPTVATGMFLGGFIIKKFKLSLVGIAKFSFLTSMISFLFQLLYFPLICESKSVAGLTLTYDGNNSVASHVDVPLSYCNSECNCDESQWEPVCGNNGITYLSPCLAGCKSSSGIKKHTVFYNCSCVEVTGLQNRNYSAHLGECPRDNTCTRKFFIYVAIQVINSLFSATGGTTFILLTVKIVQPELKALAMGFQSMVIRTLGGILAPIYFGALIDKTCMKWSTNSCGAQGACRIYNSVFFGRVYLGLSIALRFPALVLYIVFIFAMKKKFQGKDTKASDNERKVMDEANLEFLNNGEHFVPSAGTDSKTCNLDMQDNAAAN
# CYP2C9 = CYP2C9 (Homo sapiens, UniProt P11712); format: in vitro ADME
# OATP1B3 [3] = target: T2, OATP1B3
# OATP1B3 [4] = target: T2, OATP1B3; experiment: in vitro
# CYP2B6 = CYP2B6 induction by XueBiJing compounds in cryopreserved human hepatocytes; format: in vitro ADME; settings: higher concentrations; range over the named compounds and enzymes
# UGT1A9 = target: T3, UGT1A9 (Homo sapiens, UniProt O60656); experiment: UGT1A9 inhibition by XueBiJing compounds, cDNA-expressed enzyme [4-MU→4-MUG]; format: in vitro ADME
# T3 sequence (O60656 26-530): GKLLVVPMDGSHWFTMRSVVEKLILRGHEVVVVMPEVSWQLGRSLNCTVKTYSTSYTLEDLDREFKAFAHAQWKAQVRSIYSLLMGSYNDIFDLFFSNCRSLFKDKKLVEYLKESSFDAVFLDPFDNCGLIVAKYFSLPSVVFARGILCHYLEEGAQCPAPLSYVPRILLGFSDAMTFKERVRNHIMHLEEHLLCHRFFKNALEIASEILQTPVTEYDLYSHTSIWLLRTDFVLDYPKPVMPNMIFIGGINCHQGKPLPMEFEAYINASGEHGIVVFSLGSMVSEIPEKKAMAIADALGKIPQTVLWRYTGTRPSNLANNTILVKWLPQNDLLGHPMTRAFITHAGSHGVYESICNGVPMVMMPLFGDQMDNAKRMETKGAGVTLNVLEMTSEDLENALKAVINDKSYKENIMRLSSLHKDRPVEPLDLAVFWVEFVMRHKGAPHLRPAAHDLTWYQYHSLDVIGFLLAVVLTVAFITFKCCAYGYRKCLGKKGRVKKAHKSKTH
# UGT2B15 = target: T4, UGT2B15 (Homo sapiens, UniProt P54855); experiment: UGT2B15 inhibition by XueBiJing compounds, cDNA-expressed enzyme [SENI→S7G]; format: in vitro ADME
# T4 sequence (P54855 24-530): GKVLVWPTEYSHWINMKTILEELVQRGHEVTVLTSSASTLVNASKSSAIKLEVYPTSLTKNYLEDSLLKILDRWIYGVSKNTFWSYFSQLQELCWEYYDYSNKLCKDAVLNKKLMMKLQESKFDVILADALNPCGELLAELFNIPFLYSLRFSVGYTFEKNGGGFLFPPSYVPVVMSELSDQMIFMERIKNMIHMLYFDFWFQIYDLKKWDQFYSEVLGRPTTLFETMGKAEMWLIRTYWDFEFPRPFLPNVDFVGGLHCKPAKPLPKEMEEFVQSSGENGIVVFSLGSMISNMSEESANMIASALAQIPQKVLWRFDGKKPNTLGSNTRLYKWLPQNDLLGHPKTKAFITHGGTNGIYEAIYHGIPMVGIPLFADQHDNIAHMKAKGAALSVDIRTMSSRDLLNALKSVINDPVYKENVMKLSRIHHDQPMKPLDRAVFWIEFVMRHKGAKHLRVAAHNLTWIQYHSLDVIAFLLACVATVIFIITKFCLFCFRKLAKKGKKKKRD
# [5] = test system: P450 enzymes, UGTs, SULTs, OATP1B1/1B3, OAT1/3, OCT2, MATE1/2-K, MDR1, BCRP; settings: cited from earlier work
# OATP1B1 = OATP1B1 (Homo sapiens, UniProt Q9Y6L6); experiment: OATP1B1 inhibition by XueBiJing compounds, transfected HEK293 cells [E217βG]; format: in vitro ADME
# [6] = test system: human drug metabolizing enzymes and transporters; experiment: Inhibitory DDI index of XueBiJing compounds as perpetrators; settings: XueBiJing at label dose; range over the named compounds
# Sequence of CYP2C9 (P11712 whole entry): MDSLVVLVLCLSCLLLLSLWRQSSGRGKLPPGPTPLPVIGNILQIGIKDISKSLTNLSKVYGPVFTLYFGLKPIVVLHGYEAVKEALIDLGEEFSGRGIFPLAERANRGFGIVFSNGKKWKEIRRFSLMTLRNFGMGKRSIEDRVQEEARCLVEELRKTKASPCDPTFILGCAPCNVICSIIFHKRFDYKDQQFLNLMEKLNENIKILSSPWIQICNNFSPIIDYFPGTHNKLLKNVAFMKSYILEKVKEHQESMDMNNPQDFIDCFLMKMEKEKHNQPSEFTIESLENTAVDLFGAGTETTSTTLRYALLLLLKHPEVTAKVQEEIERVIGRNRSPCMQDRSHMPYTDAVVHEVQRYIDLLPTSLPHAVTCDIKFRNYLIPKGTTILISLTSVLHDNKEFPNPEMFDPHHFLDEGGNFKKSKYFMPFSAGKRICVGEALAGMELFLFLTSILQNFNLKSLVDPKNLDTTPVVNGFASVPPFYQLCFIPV
# Sequence of OATP1B1 (Q9Y6L6 whole entry): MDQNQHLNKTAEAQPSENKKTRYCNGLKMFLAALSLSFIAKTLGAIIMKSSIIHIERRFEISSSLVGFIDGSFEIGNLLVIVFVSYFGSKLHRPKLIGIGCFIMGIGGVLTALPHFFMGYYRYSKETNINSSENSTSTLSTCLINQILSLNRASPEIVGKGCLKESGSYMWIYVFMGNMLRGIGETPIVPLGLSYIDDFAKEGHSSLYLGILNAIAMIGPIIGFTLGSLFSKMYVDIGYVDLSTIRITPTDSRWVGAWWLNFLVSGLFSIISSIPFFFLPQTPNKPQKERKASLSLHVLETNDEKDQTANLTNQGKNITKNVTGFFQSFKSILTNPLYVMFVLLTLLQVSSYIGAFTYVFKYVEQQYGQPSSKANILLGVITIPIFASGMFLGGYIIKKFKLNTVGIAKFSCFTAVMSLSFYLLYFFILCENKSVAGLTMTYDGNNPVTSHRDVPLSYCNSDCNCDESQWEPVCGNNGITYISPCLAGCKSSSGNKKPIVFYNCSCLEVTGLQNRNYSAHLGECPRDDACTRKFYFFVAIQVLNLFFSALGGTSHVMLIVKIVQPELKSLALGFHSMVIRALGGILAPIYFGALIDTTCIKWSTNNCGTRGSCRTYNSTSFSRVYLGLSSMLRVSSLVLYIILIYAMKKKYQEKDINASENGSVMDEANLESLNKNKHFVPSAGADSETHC
compound,measurement,setting,value
"O=C(/C=C/c1ccc(O)c2c1[C@H](C(=O)O[C@H](Cc1ccc(O)c(O)c1)C(=O)O)[C@@H](c1ccc(O)c(O)c1)O2)O[C@H](Cc1ccc(O)c(O)c1)C(=O)O [X10, salvianolic acid B]","mRNA-T/U ratio, CYP3A4",CYP3A4,4.0 to 9.6
same,Membrane permeability,[1],Poor
same,IC50,UGT1A6,15 ± 1 µM
same,inhibition at 100 μmol/L,"UGT1A6; human, cDNA-expressed UGT1A6, probe 4-MU (100 μmol/L), 4-MUG formed",> 90%
same,Km,OATP1B3 [2],14 µM
same,Time-dependent inhibition of CYP2C9,CYP2C9,negligible
same,IC50,OATP1B3 [3],18 ± 4 µM
same,inhibition at 100 μmol/L,OATP1B3 [4],> 50%
same,"mRNA-T/U ratio, CYP2B6",CYP2B6,4.0 to 9.6
same,IC50,UGT1A9,3 ± 1 µM
same,inhibition at 100 μmol/L,"UGT1A9; human, cDNA-expressed UGT1A9, probe 4-MU (10 μmol/L), 4-MUG formed",> 90%
same,IC50,UGT2B15,92 ± 25 µM
same,inhibition at 100 μmol/L,"UGT2B15; human, cDNA-expressed UGT2B15",55%
same,Related metabolism and transport data (substrate status),[5],Highly selective OATP1B3 substrate; also recorded: COMT substrate
same,IC50,OATP1B1,38 ± 3 µM
same,"DDI index for inhibition of CYP2C9, CYP2C19, OATP1B1, OATP1B3, OAT1 and/or OAT3",[6],0.00003–0.06
